The values that follow come from patent publication US20250188110A1, “SPECIFIC SMALL MOLECULE INHIBITORS THAT BLOCK KMT9 METHYLTRANSFERASE ACTIVITY AND FUNCTION” (ALBERT-LUDWIGS-UNIVERSITÄT FREIBURG, priority 2021, published 2025).

SMILES strings stand for the structures.

Test [1] has as its target T1, KMT9 (Homo sapiens, UniProt Q9Y5N5).
T1 sequence (Q9Y5N5 1-214): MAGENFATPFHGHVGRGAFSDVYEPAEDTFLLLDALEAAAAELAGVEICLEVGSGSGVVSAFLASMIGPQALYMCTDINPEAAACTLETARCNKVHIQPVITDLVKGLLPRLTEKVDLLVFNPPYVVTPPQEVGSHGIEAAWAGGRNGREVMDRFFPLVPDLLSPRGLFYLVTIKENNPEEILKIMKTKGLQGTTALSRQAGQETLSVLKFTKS
T1 sequence (Q9UI30 1-120 isoform Q9UI30-2 partner): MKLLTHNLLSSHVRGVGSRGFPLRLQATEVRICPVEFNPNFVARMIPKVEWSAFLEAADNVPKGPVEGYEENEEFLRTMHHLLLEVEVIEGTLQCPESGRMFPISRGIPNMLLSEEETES
Nature of the test: KMT9 thermal shift assay (SyproOrange). It counts as binding. The settings on record: ΔTm; 500 µM compound, 2 μM KMT9, 5X SO; read-out: Thermal shift. The procedure, abridged:
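ΔTm versus DMSO-only control is reported in bins (>20 K, 15–20 K, 10–15 K, ≤10 K), using Tm from Boltzmann sigmoidal fits of SyproOrange melt curves. KMT9 with compound in pH 8.5 BTP buffer containing MgCl2 and DTT was preincubated at 25° C, then ramped 1° C per 15 s up to 95° C.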

The target of test [2] is T1, KMT9. Kind of test: KMT9 methyltransferase inhibition assay, 3H-SAM scintillation (entries 1-154). It counts as biochemical. Particulars: entries 1-154: 3H-SAM assay, 25 nM KMT9, 5 μM ETF1. The gist of the method: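 Tritium transfer from SAM (0.3 μM 3H-SAM, 0.7 μM unlabelled, final) to 5 μM ETF1 fragment by 25 nM KMT9 was measured after 2 h at 30° C, pH 8.5. Precipitated peptide was collected on filters and scintillation counted; IC50 came from a four-parameter fit of inhibition normalised to controls.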

Test [3] addresses T1, KMT9. Nature of the test: Microscale thermophoresis (MST) KMT9 binding. The settings on record: microscale thermophoresis, His-tag labelled KMT9 (20 nM); read-out: MST. The gist of the method:
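Kd from microscale thermophoresis: compound series against 20 nM His-KMT9 labelled via RED-Tris-NTA, buffer 25 mM HEPES (pH 7.5)/100 mM NaCl/1 mM DTT/0.05% Tween, 40% MST power, 100% LED. Reported as classes: A ≤10 nM, B >10–100 nM, C >100–1000 nM, D >1000 nM.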
On the technique in general: MST reads how a fluorescent partner responds to local heating, with and without ligand.

On to `CCc1cn([C@@H]2C[C@H](CNCCCNCCc3ccccc3)[C@@H](O)[C@H]2O)c2ncnc(Cl)c12` [Compound 632, (1R,2S,3R,5R)-3-(4-chloro-5-ethyl-7H-pyrrolo[2,3-d]pyrimidin-7-yl)-5-(((3-(phenethylamino)propyl)amino)methyl)cyclopentane-1,2-diol], for which the ΔTm at 500 µM in test [1] was ≤ 10 °C. The IC50 – broadly, the concentration that inhibits the measured activity by half – in test [2] is > 10 µM. Besides, the Kd in test [3] was > 1 µM.

For the compound `CNc1ncnc2c1ccn2[C@@H]1C[C@H](CN2CCC[C@]23CCCNC3)[C@@H](O)[C@H]1O` (single isomer, unassigned) [449 (321)], in test [1], the ΔTm at 500 µM is ≤ 10 °C. For the same compound, the IC50 in test [2] was > 10 µM. For the same compound, in test [3], the Kd was > 1 µM.

As for `Nc1ncnc2c1c(-c1ccn(S(=O)(=O)c3ccccc3)n1)cn2[C@@H]1C[C@H](CNCCCNCCc2ccccc2)[C@@H](O)[C@H]1O` [Compound 604, (1R,2S,3R,5R)-3-(4-Amino-5-(1-(phenylsulfonyl)-1H-pyrazol-3-yl)-7H-pyrrolo[2,3-d]pyrimidin-7-yl)-5-(((3-(phenethylamino)propyl)amino)methyl)cyclopentane-1,2-diol], in test [1], the ΔTm at 500 µM was 15 to 20 °C. For the same compound, in test [2], the IC50 is < 0.1 µM. The Kd in test [3] was ≤ 0.01 µM.

For `CNc1ncnc2c1ccn2[C@@H]1C[C@H](C(=O)NCC2CCCNC2)[C@@H](O)[C@H]1O` (stereo partly drawn) [348 (252), (1S,2R,3S,4R)-2,3-dihydroxy-4-(4-(methylamino)-7H-pyrrolo[2,3-d]pyrimidin-7-yl)-N-(piperidin-3-ylmethyl) cyclopentane-1-carboxamide], the ΔTm at 500 µM in test [1] is ≤ 10 °C. The IC50 in test [2] was > 10 µM. In addition, in test [3], the Kd was > 1 µM.

Regarding `Nc1ncnc2c1c(C1CCOCC1)cn2[C@@H]1C[C@H](CNCCCNCCc2ccccc2)[C@@H](O)[C@H]1O` [479 (353), (1R,2S,3R,5R)-3-(4-Amino-5-(tetrahydro-2H-pyran-4-yl)-7H-pyrrolo[2,3-d]pyrimidin-7-yl)-5-(((3-(phenethylamino)propyl)amino)methyl) cyclopentane-1,2-diol], the ΔTm at 500 µM in test [1] lay within 10 to 15 °C. Besides, in test [2], the IC50 was in the range of 1 to 10 µM. Also, the Kd in test [3] lay within 0.1 to 1 µM.

For `CNc1ncnc2c1ccn2[C@@H]1C[C@H](CN2CCC23CNC3)[C@@H](O)[C@H]1O` [445 (317), (1S,2R,3R,5R)-3-((1,6-Diazaspiro[3.3]heptan-1-yl)methyl)-5-(4-(methylamino)-7H-pyrrolo[2,3-d]pyrimidin-7-yl) cyclopentane-1,2-diol], in test [1], the ΔTm at 500 µM is ≤ 10 °C. For the same compound, in test [2], the IC50 was > 10 µM. Moreover, the Kd in test [3] was > 1 µM.

For `CNc1ncnc2c1ccn2[C@@H]1C[C@H](COCCCNCCc2ccccc2)[C@@H](O)[C@H]1O` [420 (291), (1R,2S,3R,5R)-3-(4-(methylamino)-7H-pyrrolo[2,3-d]pyrimidin-7-yl)-5-((3-(phenethylamino)propoxy)methyl) cyclopentane-1,2-diol], the ΔTm at 500 µM in test [1] was ≤ 10 °C. Besides, in test [2], the IC50 is > 10 µM. Further, the Kd in test [3] is > 1 µM.

Turning to `Cc1cn([C@@H]2C[C@H](CNCCCNCCc3ccccc3)[C@@H](O)[C@H]2O)c2ncnc(N)c12` [467 (341), (1R,2S,3R,5R)-3-(4-Amino-5-methyl-7H-pyrrolo[2,3-d]pyrimidin-7-yl)-5-(((3-(phenethylamino)propyl)amino)methyl) cyclopentane-1,2-diol], the ΔTm at 500 µM in test [1] is 10 to 15 °C. Further, the 50% inhibitory concentration (IC50) in test [2] lay within 1 to 10 µM. Besides, the Kd in test [3] lay within 0.1 to 1 µM.

Consider `Nc1ncnc2c1c(Br)cn2[C@@H]1C[C@H](C(=O)NC[C@@H]2CCCNC2)[C@@H](O)[C@H]1O` [454 (326), (1S,2R,3S,4R)-4-(4-Amino-5-bromo-7H-pyrrolo[2,3-d]pyrimidin-7-yl)-2,3-dihydroxy-N-(((R)-piperidin-3-yl)methyl) cyclopentane-1-carboxamide], for which the ΔTm at 500 µM in test [1] lay in the range of 10 to 15 °C. For the same compound, the IC50 in test [2] is > 10 µM. Also, the Kd in test [3] lay in the range of 0.1 to 1 µM.

`CNc1ncnc2c1ccn2[C@@H]1C[C@H](CNCCCNCCc2cccc(Oc3ccccc3)c2)[C@@H](O)[C@H]1O` [287 (184)]: the ΔTm at 500 µM in test [1] is 10 to 15 °C. Moreover, the IC50 in test [2] was 1 to 10 µM. Besides, the Kd in test [3] was in the range of 0.1 to 1 µM.

For the compound `CNc1ncnc2c1ccn2[C@@H]1C[C@H](CSCCCNCCc2ccccc2)[C@@H](O)[C@H]1O` [427 (299), (1R,2S,3R,5S)-3-(4-(methylamino)-7H-pyrrolo[2,3-d]pyrimidin-7-yl)-5-(((3-(phenethylamino)propyl)thio)methyl) cyclopentane-1,2-diol], in test [1], the ΔTm at 500 µM was ≤ 10 °C. In test [2], this compound displayed an IC50 of 1 to 10 µM. Moreover, the Kd in test [3] is > 1 µM.

For `O=C1CCc2cn([C@@H]3C[C@H](CNCCCNCCc4ccccc4)[C@@H](O)[C@H]3O)c3ncnc(c23)N1` [Compound 627, 2-((1R,2S,3R,4R)-2,3-dihydroxy-4-(((3-(phenethylamino)propyl)amino)methyl)cyclopentyl)-2,6,8,9-tetrahydro-7H-2,3,5,6-tetraazabenzo[cd]azulen-7-one], in test [1], the ΔTm at 500 µM is ≤ 10 °C. Also, the IC50 in test [2] was > 10 µM. In addition, the Kd in test [3] lay in the range of 0.1 to 1 µM.

With `Nc1ncnc2c1c(-c1ncc[nH]1)cn2[C@@H]1C[C@H](CNCCCNCCc2ccccc2)[C@@H](O)[C@H]1O` [473 (347), (1R,2S,3R,5R)-3-(4-Amino-5-(1H-imidazol-2-yl)-7H-pyrrolo[2,3-d]pyrimidin-7-yl)-5-(((3-(phenethylamino)propyl)amino)methyl) cyclopentane-1,2-diol], in test [1], the ΔTm at 500 µM lay in the range of 15 to 20 °C. This compound had an IC50 in test [2] of 0.1 to 1 µM. For the same compound, the Kd in test [3] fell in the range of 0.01 to 0.1 µM.

As to `Nc1ncnc2c1c(Br)cn2[C@@H]1C[C@H](C(=O)NC[C@H]2CCCNC2)[C@@H](O)[C@H]1O` [453 (325), (1S,2R,3S,4R)-4-(4-Amino-5-bromo-7H-pyrrolo[2,3-d]pyrimidin-7-yl)-2,3-dihydroxy-N-(((S)-piperidin-3-yl)methyl) cyclopentane-1-carboxamide], the ΔTm at 500 µM in test [1] was in the range of 10 to 15 °C. Besides, the IC50 in test [2] is > 10 µM. In test [3], the Kd is 0.1 to 1 µM.

As for `CNc1ncnc2c1ccn2[C@@H]1C[C@H](CNC[C@H]2CCCNC2)[C@@H](O)[C@H]1O` [436 (308), (1R,2S,3R,5R)-3-[4-(Methylamino)pyrrolo[2,3-d]pyrimidin-7-yl]-5-({[(3S)-piperidin-3-ylmethyl]amino}methyl) cyclopentane-1,2-diol], in test [1], the ΔTm at 500 µM is ≤ 10 °C. Moreover, the IC50 in test [2] was > 10 µM. Further, in test [3], the Kd is > 1 µM.

Regarding `Nc1ncnc2c1c(C1CC1)cn2[C@@H]1C[C@H](CNCCCNCCc2cccc(Oc3ccccc3)c2)[C@@H](O)[C@H]1O` [460 (333), (1R,2S,3R,5R)-3-(4-Amino-5-cyclopropyl-7H-pyrrolo[2,3-d]pyrimidin-7-yl)-5-(((3-((3-phenoxyphenethyl)amino)propyl)amino)methyl) cyclopentane-1,2-diol], in test [1], the ΔTm at 500 µM was in the range of 15 to 20 °C. In test [2], this compound showed a 50% inhibitory concentration (IC50) of 0.1 to 1 µM. Further, in test [3], the Kd lay within 0.01 to 0.1 µM.

In the case of `CNc1ncnc2c1ccn2[C@@H]1C[C@H](CN(CCCNCCc2ccccc2)c2cc[nH]n2)[C@@H](O)[C@H]1O` [444 (316)], in test [1], the ΔTm at 500 µM was ≤ 10 °C. Moreover, the IC50 in test [2] is 1 to 10 µM. Moreover, the Kd in test [3] was > 1 µM.
